Target: T1, TDP1 (Homo sapiens, UniProt Q9NUW8)
T1 construct: made in house; host or cells: E. coli
Assay: Real-time fluorescence detection of TDP1 activity, single-stranded FAM/BHQ biosensor
Type: biochemical
Conditions: for Inhibitory effect on TDP1 activity (in words): single-stranded fluorescent biosensor, primary screening; for IC50: single-stranded fluorescent biosensor 50 nM, TDP1 1.5 nM, 26 °C, read-out: IC50 (half-maximal inhibitory concentration) of TDP1 activity; for Increase of efficiency of TDP1 inhibition by appending TBDPS at 5'-position: 37 compared to 36, 42 compared to 41, ratio of IC50
Method: Conditions and details for our real-time detection of TDP1 activity using the single-stranded and hairpin fluorescent biosensors were reported in our previous work[47]. Briefly, the approach consists in fluorescence intensity measurement of the reaction of quencher removal from the fluorophore-quencher coupled DNA-oligonucleotide catalysed by TDP1 in the presence of inhibitor and in the absence of it (the control samples contained 1% DMSO). Reaction mixtures (200 µl) contained TDP1 buffer (50 mM Tris-HCl, pH 8.0, 50 mM NaCl, 7 mM β-mercaptoethanol), oligonucleotide (50 nM substrate of TDP1), testable inhibitor and purified TDP1 (1.5 nM). The reactions were incubated at a constant temperature of 26 °C in a POLARstar OPTIMA fluorimeter, BMG LABTECH, GmbH, to measure fluorescence every 55 s (Ex485/Em520 nm) during the linear phase (here data from 0 to 8 min). The average values of half maximal inhibitory concentration (IC50) were determined using an eleven-point concentration response curve in three independent experiments and calculated using MARS Data Analysis 2.0 (BMG LABTECH).
To discover inhibitors of TDP1 we recently developed original single-stranded and hairpin fluorophore–quencher coupled DNA-biosensors for real-time measurement of TDP1 cleavage activity. The single-stranded substrate is a 16-mer oligonucleotide containing both 5′-FAM fluorophore donor and a quenching 3′-BHQ moiety (Figure 1(A)). When the quencher is removed by TDP1, the fluorescence intensity increases and can be measured by fluorimeter (TDP1 catalysed reaction on biosensor is shown in Figure 3(A). Fluorescence intensity declines in the presence of inhibitor, the resulting curves of the dependence of TDP1 residual activity as a function of the concentration of inhibitors were obtained using 4-parameter logistic regression fit, which was used to calculate IC50 values[47]^,[58].
For primary screening, the effect of a large group of disaccharide nucleosides and their hydrophobic derivatives on human recombinant TDP1 activity has been evaluated by fluorescent method on a single-stranded substrate described above.

T1 sequence (Q9NUW8 whole entry): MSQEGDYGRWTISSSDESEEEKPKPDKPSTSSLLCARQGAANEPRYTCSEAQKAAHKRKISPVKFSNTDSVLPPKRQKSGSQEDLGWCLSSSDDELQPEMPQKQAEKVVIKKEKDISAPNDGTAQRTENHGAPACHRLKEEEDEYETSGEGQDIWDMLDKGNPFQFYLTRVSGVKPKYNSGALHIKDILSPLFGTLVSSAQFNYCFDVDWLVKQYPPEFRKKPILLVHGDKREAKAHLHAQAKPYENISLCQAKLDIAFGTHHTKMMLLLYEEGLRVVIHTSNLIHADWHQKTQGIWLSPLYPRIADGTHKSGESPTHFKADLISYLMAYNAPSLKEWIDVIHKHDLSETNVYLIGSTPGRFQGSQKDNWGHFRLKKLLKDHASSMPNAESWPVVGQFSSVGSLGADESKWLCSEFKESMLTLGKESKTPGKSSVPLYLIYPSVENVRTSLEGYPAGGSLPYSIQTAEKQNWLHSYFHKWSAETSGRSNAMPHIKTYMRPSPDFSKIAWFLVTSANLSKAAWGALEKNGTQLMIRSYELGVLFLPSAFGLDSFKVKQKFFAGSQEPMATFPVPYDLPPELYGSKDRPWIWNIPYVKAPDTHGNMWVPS

Inhibitory effect on TDP1 activity (in words)	IC50	Increase of efficiency of TDP1 inhibition by appending TBDPS at 5'-position	SMILES
did not observe any inhibitory effect			CC(=O)O[C@H]1[C@H](O[C@H]2C[C@H](n3cc(C)c(=O)[nH]c3=O)O[C@@H]2CO)OC[C@@H](OC(C)=O)[C@H]1OC(C)=O [Compound 28]
	1000 ± 100 nM		Cc1cn([C@H]2C[C@H](O[C@@H]3O[C@H](COC(=O)c4ccccc4)[C@@H](OC(=O)c4ccccc4)[C@H]3OC(=O)c3ccccc3)[C@@H](CO[C@@H]3O[C@H](COC(=O)c4ccccc4)[C@@H](OC(=O)c4ccccc4)[C@H]3OC(=O)c3ccccc3)O2)c(=O)[nH]c1=O [Compound 33]
not inhibited			Nc1nc2c(ncn2[C@H]2C[C@H](O[C@@H]3O[C@H](CO)[C@@H](O)[C@H]3O)[C@@H](CO)O2)c(=O)[nH]1 [Compound 34]
not inhibited			Nc1ccn([C@H]2C[C@H](O[C@@H]3O[C@H](CO)[C@@H](O)[C@H]3O)[C@@H](CO)O2)c(=O)n1 [Compound 35]
	1500 ± 200 nM		O=C(Nc1ccn([C@H]2C[C@H](O[C@@H]3O[C@H](COC(=O)c4ccccc4)[C@@H](OC(=O)c4ccccc4)[C@H]3OC(=O)c3ccccc3)[C@@H](CO)O2)c(=O)n1)c1ccccc1 [Compound 36]
	900 ± 100 nM	about 1.6 times	CC(C)(C)[Si](OC[C@H]1O[C@@H](n2ccc(NC(=O)c3ccccc3)nc2=O)C[C@@H]1O[C@@H]1O[C@H](COC(=O)c2ccccc2)[C@@H](OC(=O)c2ccccc2)[C@H]1OC(=O)c1ccccc1)(c1ccccc1)c1ccccc1 [Compound 37]
not inhibited			O=c1ccn([C@H]2C[C@H](O[C@@H]3O[C@H](CO)[C@@H](O)[C@H]3O)[C@@H](CO)O2)c(=O)[nH]1 [Compound 38]
did not observe any inhibitory effect			O=c1[nH]c(=O)n([C@H]2C[C@H](O[C@@H]3OC[C@@H](O)[C@@H](O)[C@H]3O)[C@@H](CO)O2)cc1I [Compound 40]
	800 ± 100 nM	about 3.5 times	CC(C)(C)[Si](OC[C@H]1O[C@@H](n2cc(I)c(=O)[nH]c2=O)C[C@@H]1O[C@@H]1O[C@H](COC(=O)c2ccccc2)[C@@H](OC(=O)c2ccccc2)[C@H]1OC(=O)c1ccccc1)(c1ccccc1)c1ccccc1 [Compound 42]
not inhibited			Nc1ncnc2c1ncn2[C@H]1C[C@H](O)[C@@H](CO[C@@H]2O[C@H](CO)[C@@H](O)[C@H]2O)O1 [Compound 43]
not inhibited			Cc1cn([C@H]2C[C@H](O)[C@@H](CO[C@@H]3O[C@H](CO)[C@@H](O)[C@H]3O)O2)c(=O)[nH]c1=O [Compound 44]
weak inhibitory effect			Nc1nc2c(ncn2[C@H]2C[C@H](O)[C@@H](CO[C@@H]3O[C@H](CO)[C@@H](O)[C@H]3O)O2)c(=O)[nH]1 [Compound 45]
not inhibited			Nc1ccn([C@H]2C[C@H](O)[C@@H](CO[C@@H]3O[C@H](CO)[C@@H](O)[C@H]3O)O2)c(=O)n1 [Compound 46]
weak inhibitory effect			O=c1ccn([C@H]2C[C@H](O)[C@@H](CO[C@@H]3O[C@H](CO)[C@@H](O)[C@H]3O)O2)c(=O)[nH]1 [Compound 47]

More lines, now with the values behind:

SMILES	Inhibitory effect on TDP1 activity (in words)	IC50	Increase of efficiency of TDP1 inhibition by appending TBDPS at 5'-position
Nc1ncnc2c1ncn2[C@@H]1O[C@H](CO)[C@@H](O)[C@H]1O[C@@H]1O[C@H](CO)[C@@H](O)[C@H]1O [Compound 1]	not inhibited		
Cc1cn([C@@H]2O[C@H](CO)[C@@H](O)[C@H]2O[C@@H]2O[C@H](CO)[C@@H](O)[C@H]2O)c(=O)[nH]c1=O [Compound 5]	not inhibited		
Nc1nc2c(ncn2[C@@H]2O[C@H](CO)[C@@H](O)[C@H]2O[C@@H]2O[C@H](CO)[C@@H](O)[C@H]2O)c(=O)[nH]1 [Compound 8]	not inhibited		
Nc1ccn([C@@H]2O[C@H](CO)[C@@H](O)[C@H]2O[C@@H]2O[C@H](CO)[C@@H](O)[C@H]2O)c(=O)n1 [Compound 12]	not inhibited		
O=C(Nc1ccn([C@@H]2O[C@H](CO)[C@@H](O)[C@H]2O[C@@H]2O[C@H](COC(=O)c3ccccc3)[C@@H](OC(=O)c3ccccc3)[C@H]2OC(=O)c2ccccc2)c(=O)n1)c1ccccc1 [Compound 13]		2600 ± 200 nM	
CC(C)[Si]1(C(C)C)OC[C@H]2O[C@@H](n3ccc(NC(=O)c4ccccc4)nc3=O)[C@H](O[C@@H]3O[C@H](COC(=O)c4ccccc4)[C@@H](OC(=O)c4ccccc4)[C@H]3OC(=O)c3ccccc3)[C@@H]2O[Si](C(C)C)(C(C)C)O1 [Compound 16]		400 ± 100 nM	
O=c1ccn([C@@H]2O[C@H](CO)[C@@H](O)[C@H]2O[C@@H]2O[C@H](CO)[C@@H](O)[C@H]2O)c(=O)[nH]1 [Compound 17]	not inhibited		
Nc1ncnc2c1ncn2[C@H]1C[C@H](O[C@@H]2O[C@H](CO)[C@@H](O)[C@H]2O)[C@@H](CO)O1 [Compound 22]	not inhibited		
Cc1cn([C@H]2C[C@H](O[C@@H]3O[C@H](COP(=O)([O-])[O-])[C@@H](O)[C@H]3O)[C@@H](CO)O2)c(=O)[nH]c1=O.[Na+].[Na+] [Compound 25]	does not lead to the noticeable inhibitory effect		
Cc1cn([C@H]2C[C@H](O[C@@H]3O[C@H](CO)[C@@H](O)[C@H]3O)[C@@H](COP(=O)(O)O)O2)c(=O)[nH]c1=O.N.N [Compound 26]	does not lead to the noticeable inhibitory effect		
Cc1cn([C@H]2C[C@H](O[C@@H]3OC[C@@H](O)[C@@H](O)[C@H]3O)[C@@H](CO)O2)c(=O)[nH]c1=O [Compound 27]	did not observe any inhibitory effect		
Cc1cn([C@@H]2C[C@H](O[C@@H](C=O)O[C@@H](C=O)CO)[C@@H](CO)O2)c(=O)[nH]c1=O [Compound 30]	did not lead to the noticeable inhibitory activity		

— PMC6136360, “Novel group of tyrosyl-DNA-phosphodiesterase 1 inhibitors based on disaccharide nucleosides as drug prototypes for anti-cancer therapy” (Journal of Enzyme Inhibition and Medicinal Chemistry, 2018)
